Laboratory results from PubChem BioAssay (NCI).
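Values below derive from 48-hour exposures of cells grown in 96-well plates, with endpoints linearly interpolated between the two concentrations bracketing the appropriate inhibition level. TGI denotes the concentration required for complete inhibition of growth.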

Key:
Assay in all cases: NCI anticancer screen, dose series, 48 h
CAKI-1 renal = test system: CAKI-1 renal
CCRF-CEM leukemia = test system: CCRF-CEM leukemia
HCC-2998 colon = test system: HCC-2998 colon
HCT-15 colon = test system: HCT-15 colon
HT29 colon = test system: HT29 colon
IGROV1 ovarian = test system: IGROV1 ovarian
K-562 leukemia = test system: K-562 leukemia
M14 melanoma = test system: M14 melanoma
MALME-3M melanoma = test system: MALME-3M melanoma
MCF7 breast = test system: MCF7 breast
NCI-H23 lung = test system: NCI-H23 lung
OVCAR-3 ovarian = test system: OVCAR-3 ovarian
OVCAR-8 ovarian = test system: OVCAR-8 ovarian
SN12C renal = test system: SN12C renal
SNB-19 CNS = test system: SNB-19 CNS
TK-10 renal = test system: TK-10 renal
UACC-257 melanoma = test system: UACC-257 melanoma

| SMILES | TGI (CAKI-1 renal) [µM] | TGI (CCRF-CEM leukemia) [µM] | TGI (HCC-2998 colon) [µM] | TGI (HCT-15 colon) [µM] | TGI (HT29 colon) [µM] | TGI (IGROV1 ovarian) [µM] | TGI (K-562 leukemia) [µM] | TGI (M14 melanoma) [µM] | TGI (MALME-3M melanoma) [µM] | TGI (MCF7 breast) [µM] | TGI (NCI-H23 lung) [µM] | TGI (OVCAR-3 ovarian) [µM] | TGI (OVCAR-8 ovarian) [µM] | TGI (SN12C renal) [µM] | TGI (SNB-19 CNS) [µM] | TGI (TK-10 renal) [µM] | TGI (UACC-257 melanoma) [µM] |
| --- | --- | --- | --- | --- | --- | --- | --- | --- | --- | --- | --- | --- | --- | --- | --- | --- | --- |
| COC1=N[C@H](C(C)C)C(OC)=N[C@H]1Cc1ccc(C[C@@H]2N=C(OC)[C@@H](C(C)C)N=C2OC)s1 | > 100 | 50.3 | > 100 | > 100 | 96.3 | > 100 | > 100 | > 100 | > 100 | 59.4 | 72.9 | > 100 | > 100 | > 100 | > 100 | > 100 | 97.1 |
| Cc1c(O)c(OC2OC(CO)C(O)C(O)C2O)cc2c1CC[C@@H]1C2(C)C(=O)C[C@]2(C)[C@@H]([C@@](C)(O)C3CCC(C)(C)O3)[C@H](O)C[C@@]12C (some centres not stated) | > 100 | > 100 | > 100 | > 100 | > 100 | > 100 | > 100 | > 100 | > 100 | > 100 | > 100 | > 100 | > 100 | > 100 | > 100 | > 100 | > 100 |
| O=C(O)c1nc2ccc(Cl)cc2[nH]c1=O | > 100 | > 100 | > 100 | > 100 | > 100 | > 100 | > 100 | > 100 | > 100 | > 100 | > 100 | > 100 | > 100 | > 100 | > 100 | > 100 | > 100 |
| C[C@@H]1[C@H](O)CC2=C(CC[C@@H](O)C2(C)C)[C@@]1(CO)CCc1ccoc1 | > 50 | > 50 | > 50 | > 50 | > 50 | > 50 | > 50 | > 50 | > 50 | > 50 | > 50 | > 50 | > 50 | > 50 | > 50 | > 50 | > 50 |
| Cn1nc2ccc([N+](=O)[O-])cc2[n+]1[O-] | > 100 | > 100 | > 100 | > 100 | > 100 | > 100 | > 100 | > 100 | > 100 | > 100 | > 100 | > 100 | > 100 | > 100 | > 100 | > 100 | > 100 |
| N#Cc1c(C#N)c(-c2ccccc2)n(Cc2ccccc2)c1N | > 100 | > 100 | > 100 | > 100 | > 100 | > 100 | > 100 | > 100 | > 100 | > 100 | > 100 | > 100 | 75.4 | > 100 | > 100 | > 100 | > 100 |
| CC1=NN(c2nc(N)nc(CSc3cc(Cl)c(C)cc3S(N)(=O)=O)n2)C(C)(C)C1 | > 10 | > 10 | > 10 | > 10 | > 10 | > 10 | > 10 | > 10 | > 10 | > 10 | > 10 | > 10 | > 10 | > 10 | > 10 | > 10 | > 10 |
| COC(=O)CN(CC(O)C(NC(C)=O)C(O)C=O)C(=O)OCc1ccccc1 (configuration not stated) | > 100 | > 100 | > 100 | > 31.6 | > 100 | > 100 | > 100 | > 100 | > 100 | > 100 | > 100 | > 100 | > 100 | > 100 | > 100 | > 100 | > 100 |
| CC(C)(C)OC(=O)N1CC(CCl)c2ccc(O)cc21 (configuration not stated) | 11.6 | 9.61 | 2.02 | 10 | 11 | 13.3 | 14.2 | 3.21 | 3.01 | 5.02 | 2.32 | 5.83 | 11.7 | 11.5 | 10.6 | 7.47 | 5.01 |
| O=C(CC(O)(C(F)(F)F)C(F)(F)Cl)CC(O)(C(F)(F)F)C(F)(F)Cl (configuration not stated) | > 10 | > 10 | > 10 | > 10 | > 10 | > 10 | > 10 | > 10 | 6.34 | > 10 | 4.34 | 9.14 | > 10 | 9.8 | > 10 | 9.9 | 4.59 |
| COc1cccc2c1C1(O)C2CCCCCCCCCC12OCCCO2 (configuration not stated) | > 100 | > 92.4 | > 100 | > 100 | > 59.2 | > 100 | > 100 | > 100 | > 100 | > 100 | > 100 | > 81 | > 100 | > 100 | > 100 | > 100 | > 100 |
| CCN(CC)Cc1ccccc1CC(=O)N1c2ccccc2C(=O)Nc2cccnc21 | > 100 | > 100 | > 100 | > 100 | > 100 | > 100 | > 100 | > 100 | > 100 | > 100 | > 100 | > 100 | > 100 | > 100 | > 100 | > 100 | > 100 |
| CC(=O)c1c(SCCN2CCOCC2)n(-c2ccccc2)c(=S)n(-c2ccccc2)c1=O | > 52.3 | 32.5 | 28.5 | 48.6 | 52.9 | 34.6 | > 94.2 | 30.2 | 58.6 | 5.31 | > 64.5 | 29.3 | 39.5 | 34.4 | > 55.2 | 31.2 | 29.2 |
| CNC(=O)N(CCC#N)CCN(C(=O)N(C)C)c1ccccc1 | > 100 | > 100 | > 100 | > 100 | > 100 | > 100 | > 100 | > 100 | > 100 | > 100 | > 100 | > 100 | > 100 | > 100 | > 100 | > 100 | > 100 |
| Cn1c(=O)c2sc3c4sc5c(=O)n(C)c6ccccc6c5c4sc3c2c2ccccc21 | > 100 | > 100 | > 100 | > 100 | > 100 | > 100 | > 100 | > 100 | > 100 | > 100 | > 100 | > 100 | > 100 | > 100 | > 100 | > 100 | > 100 |
| Cc1cc(S(=O)(=O)Nc2nnc3c4ccccc4cnn23)c(S)cc1Cl | > 100 | > 100 | > 100 | > 100 | > 100 | > 100 | > 100 | > 100 | > 100 | > 100 | > 100 | > 100 | > 100 | > 100 | > 88.9 | > 100 | > 100 |
| CC(=O)OC1OC(c2ccoc2)C[C@@]12C1CCC3O[C@]3(C)[C@]1(C)[C@H](OC(C)=O)[C@H](OC(C)=O)[C@H]2C (some centres not stated) | > 37.5 | > 37.5 | > 37.5 | > 37.5 | > 37.5 | > 37.5 | > 37.5 | > 37.5 | > 37.5 | > 37.5 | > 37.5 | > 37.5 | > 37.5 | > 37.5 | > 37.5 | > 37.5 | > 37.5 |
| CNCCCNC(=S)Cn1cc(C)c(=O)[nH]c1=O | 39.4 | > 50 | > 69 | > 100 | > 100 | > 96.1 | > 100 | > 69.6 | > 100 | > 92.5 | > 81.8 | > 100 | > 100 | > 100 | > 100 | > 100 | > 59.4 |
| O/N=C1\CC2(N3CCOCC3)CCC1(c1ccccc1)CC2 | > 100 | > 100 | > 100 | > 100 | > 100 | > 100 | > 100 | > 100 | > 100 | > 100 | > 100 | > 100 | > 100 | > 100 | > 100 | > 100 | > 100 |
| CN(C)CCNCc1ccc2c(-c3ccccc3)nc3cc(Cl)c(Cl)cc3n12 | 18.9 | 29.4 | 5.83 | 23.2 | 16.7 | 22.6 | 31.9 | 15.3 | 33.1 | 19.1 | 28.9 | 35.9 | 27.7 | 24.2 | 28.9 | 22.2 | 19.9 |
| O=[N+]([O-])c1ccc(-n2nc3ccc4c(no[n+]4[O-])c3[n+]2[O-])c([N+](=O)[O-])c1 | 6.06 | 3.68 | 8.77 | 7.75 | 15.1 | 3.4 | 5.75 | 3.29 | 7.45 | 3.98 | 5.43 | 6.39 | 6.05 | 7.03 | 16.5 | 6.88 | 3.65 |
| NC(=O)CN1CC(C2=C(O)CN(CC(N)=O)C2=O)=CC1=O | > 100 | > 100 | > 100 | > 100 | > 100 | > 100 | > 100 | > 100 | > 100 | > 100 | > 100 | > 100 | > 100 | > 100 | > 100 | > 100 | > 100 |
| O/N=C(/C(Cl)=C(Cl)Cl)C(Cl)Cl | 87.3 | 36.7 | 79.6 | 33.5 | 30.3 | 44.6 | 38 | 40.8 | 77.9 | 60.7 | 30.7 | 38.6 | 66.8 | 34.1 | > 100 | 34.7 | 40.6 |
| Cc1cccc(NC(=O)O/N=C(\Cl)C(C)C)c1 | 3.17 | 3.9 | 33.8 | 4.98 | 27.2 | 33.8 | > 100 | 16.4 | 5.29 | 28 | 29.1 | 11.4 | 34.2 | 10.3 | 38.9 | 27.3 | 31.5 |
| Cc1c(O)c(OC2OC(CO)C(O)C(O)C2O)cc2c1C=C[C@@H]1[C@@]2(C)C(=O)C[C@]2(C)[C@@H]([C@@](C)(O)C(O)/C=C/C(C)(C)O)[C@H](O)C[C@@]12C (some centres not stated) | > 100 | > 100 | > 100 | > 100 | > 100 | > 100 | > 100 | > 100 | > 100 | > 100 | > 100 | > 100 | > 100 | > 100 | > 100 | > 100 | > 100 |
| CC(=O)NC1C(OC(C)C(=O)NC(C(=O)NC(CCC(=O)NCCCNC2c3ccccc3Nc3cccc([N+](=O)[O-])c32)C(N)=O)C(C)C)C(O)C(CO)OC1(C)OCc1ccccc1 (configuration not stated) | 3.05 | 4.59 | 2.2 | 1.97 | 0.417 | 3.2 | 7.65 | 12.2 | 2.69 | 2.85 | 3.3 | 2.85 | 3.28 | 3.82 | 3.67 | 0.695 | 5.14 |
